In ChEMBL document CHEMBL4411304, “CDK8 as a therapeutic target for cancers and recent developments in discovery of CDK8 inhibitors” (Eur J Med Chem, 2019):

What was measured:
[1] = biological target: T1, Serine/threonine-protein kinase haspin (Homo sapiens) (UniProt Q8TF76); test: Inhibition of wild-type human partial length HASPIN (I452 to K798 residues) expressed in mammalian expression system at 300 nM by Kinomescan method relative to control
T1 sequence (whole entry): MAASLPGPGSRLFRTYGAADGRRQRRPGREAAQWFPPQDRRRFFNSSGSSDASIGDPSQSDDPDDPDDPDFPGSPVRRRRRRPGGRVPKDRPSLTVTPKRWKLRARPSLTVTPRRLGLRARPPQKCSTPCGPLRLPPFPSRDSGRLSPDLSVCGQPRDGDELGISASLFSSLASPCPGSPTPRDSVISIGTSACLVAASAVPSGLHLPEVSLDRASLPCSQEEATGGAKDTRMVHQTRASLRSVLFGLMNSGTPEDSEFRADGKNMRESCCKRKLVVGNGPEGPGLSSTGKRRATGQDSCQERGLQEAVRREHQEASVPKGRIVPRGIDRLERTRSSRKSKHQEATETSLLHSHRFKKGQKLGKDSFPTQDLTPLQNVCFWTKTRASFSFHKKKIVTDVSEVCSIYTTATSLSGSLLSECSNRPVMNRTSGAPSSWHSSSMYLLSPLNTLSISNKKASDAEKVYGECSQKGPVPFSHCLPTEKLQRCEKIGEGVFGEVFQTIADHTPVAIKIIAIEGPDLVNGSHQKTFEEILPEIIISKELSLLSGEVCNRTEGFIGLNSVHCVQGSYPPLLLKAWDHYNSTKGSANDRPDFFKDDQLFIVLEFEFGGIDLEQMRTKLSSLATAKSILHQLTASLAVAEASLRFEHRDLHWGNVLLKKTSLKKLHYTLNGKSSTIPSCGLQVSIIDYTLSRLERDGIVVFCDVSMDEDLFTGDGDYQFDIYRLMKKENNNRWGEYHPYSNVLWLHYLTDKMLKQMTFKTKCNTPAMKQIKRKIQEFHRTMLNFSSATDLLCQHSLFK

[2] = biological target: T2, Cyclin-dependent kinase 19 (Homo sapiens, UniProt Q9BWU1); test: Inhibition of wild-type partial length human CDK11 (M1 to N360 residues) expressed in bacterial expression system at 300 nM by Kinomescan assay
T2 sequence (Q9BWU1 whole entry, the tested form may be a part): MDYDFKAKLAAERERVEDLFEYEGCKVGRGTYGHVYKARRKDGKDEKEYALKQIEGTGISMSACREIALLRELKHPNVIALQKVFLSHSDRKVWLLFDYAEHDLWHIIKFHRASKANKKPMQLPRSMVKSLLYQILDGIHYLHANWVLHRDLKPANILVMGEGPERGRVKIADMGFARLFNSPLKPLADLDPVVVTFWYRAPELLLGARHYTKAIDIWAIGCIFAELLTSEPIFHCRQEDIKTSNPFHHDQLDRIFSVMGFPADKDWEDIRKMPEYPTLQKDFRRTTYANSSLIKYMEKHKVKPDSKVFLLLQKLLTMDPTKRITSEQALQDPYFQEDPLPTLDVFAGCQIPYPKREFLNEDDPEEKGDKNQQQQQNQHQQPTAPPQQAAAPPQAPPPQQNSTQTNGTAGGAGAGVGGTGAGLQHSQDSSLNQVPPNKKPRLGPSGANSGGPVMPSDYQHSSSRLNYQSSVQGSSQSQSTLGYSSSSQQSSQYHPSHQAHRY

CDK8/Cyclin C = CDK8/Cyclin C (Homo sapiens, UniProt P49336); test: Inhibition of recombinant human full-length GST/His-fused CDK8/CycC expressed in Sf9 insect cells using RBER-IRStide as substrate after 1 hr in presence of [gamma33P-ATP] by microbeta scintillation counting method
Sequence of CDK8/Cyclin C (P49336 whole entry, the tested form may be a part): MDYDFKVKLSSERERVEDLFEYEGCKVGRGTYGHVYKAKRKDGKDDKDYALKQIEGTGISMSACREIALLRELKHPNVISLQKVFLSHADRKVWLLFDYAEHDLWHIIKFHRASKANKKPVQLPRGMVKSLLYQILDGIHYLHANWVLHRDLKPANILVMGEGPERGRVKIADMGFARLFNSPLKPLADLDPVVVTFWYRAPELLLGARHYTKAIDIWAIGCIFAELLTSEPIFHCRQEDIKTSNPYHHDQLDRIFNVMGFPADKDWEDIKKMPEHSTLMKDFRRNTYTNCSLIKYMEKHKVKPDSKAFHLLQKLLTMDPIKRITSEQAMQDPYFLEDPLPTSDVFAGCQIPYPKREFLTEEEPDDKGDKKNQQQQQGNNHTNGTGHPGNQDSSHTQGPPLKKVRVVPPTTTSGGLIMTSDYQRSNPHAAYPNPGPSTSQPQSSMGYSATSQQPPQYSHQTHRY
Sequence of CDK8/Cyclin C (P24863 whole entry, further chain, the tested form may be a part): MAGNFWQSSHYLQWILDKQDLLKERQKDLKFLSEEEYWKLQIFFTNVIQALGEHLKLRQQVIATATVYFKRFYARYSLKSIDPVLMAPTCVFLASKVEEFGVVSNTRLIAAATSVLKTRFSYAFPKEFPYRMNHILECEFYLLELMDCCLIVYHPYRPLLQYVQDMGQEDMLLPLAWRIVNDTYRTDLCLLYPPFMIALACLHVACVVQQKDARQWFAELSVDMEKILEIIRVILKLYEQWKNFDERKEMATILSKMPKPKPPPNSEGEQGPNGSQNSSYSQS

COLO 205 = test: Growth inhibition of CDK8 over-expressing human COLO205 cells by MTT assay; assay type: functional
HCT-116 = test: Growth inhibition of CDK8 over-expressing human HCT116 cells by MTT assay; assay type: functional
HT-29 = test: Growth inhibition of CDK8 over-expressing human HT-29 cells by MTT assay; assay type: functional
[3] = biological target: Cyclin-dependent kinase 8 (Homo sapiens, UniProt P49336); test: Binding affinity to wild-type partial length human CDK8 (M1 to T360 residues) expressed in bacterial expression system by Kinomescan assay
Sequence of Cyclin-dependent kinase 8 (P49336 whole entry, the tested form may be a part): as the sequence (P49336 whole entry, the tested form may be a part) above

[4] = biological target: T2, Cyclin-dependent kinase 19; test: Binding affinity to wild-type partial length human CDK11 (M1 to N360 residues) expressed in bacterial expression system by Kinomescan assay
[5] = biological target: Rho-associated protein kinase 2 (Homo sapiens, UniProt O75116); test: Binding affinity to wild-type partial length human ROCK2 (M1 to T431 residues) expressed in mammalian expression system by Kinomescan assay
Sequence of Rho-associated protein kinase 2 (O75116 whole entry, the tested form may be a part): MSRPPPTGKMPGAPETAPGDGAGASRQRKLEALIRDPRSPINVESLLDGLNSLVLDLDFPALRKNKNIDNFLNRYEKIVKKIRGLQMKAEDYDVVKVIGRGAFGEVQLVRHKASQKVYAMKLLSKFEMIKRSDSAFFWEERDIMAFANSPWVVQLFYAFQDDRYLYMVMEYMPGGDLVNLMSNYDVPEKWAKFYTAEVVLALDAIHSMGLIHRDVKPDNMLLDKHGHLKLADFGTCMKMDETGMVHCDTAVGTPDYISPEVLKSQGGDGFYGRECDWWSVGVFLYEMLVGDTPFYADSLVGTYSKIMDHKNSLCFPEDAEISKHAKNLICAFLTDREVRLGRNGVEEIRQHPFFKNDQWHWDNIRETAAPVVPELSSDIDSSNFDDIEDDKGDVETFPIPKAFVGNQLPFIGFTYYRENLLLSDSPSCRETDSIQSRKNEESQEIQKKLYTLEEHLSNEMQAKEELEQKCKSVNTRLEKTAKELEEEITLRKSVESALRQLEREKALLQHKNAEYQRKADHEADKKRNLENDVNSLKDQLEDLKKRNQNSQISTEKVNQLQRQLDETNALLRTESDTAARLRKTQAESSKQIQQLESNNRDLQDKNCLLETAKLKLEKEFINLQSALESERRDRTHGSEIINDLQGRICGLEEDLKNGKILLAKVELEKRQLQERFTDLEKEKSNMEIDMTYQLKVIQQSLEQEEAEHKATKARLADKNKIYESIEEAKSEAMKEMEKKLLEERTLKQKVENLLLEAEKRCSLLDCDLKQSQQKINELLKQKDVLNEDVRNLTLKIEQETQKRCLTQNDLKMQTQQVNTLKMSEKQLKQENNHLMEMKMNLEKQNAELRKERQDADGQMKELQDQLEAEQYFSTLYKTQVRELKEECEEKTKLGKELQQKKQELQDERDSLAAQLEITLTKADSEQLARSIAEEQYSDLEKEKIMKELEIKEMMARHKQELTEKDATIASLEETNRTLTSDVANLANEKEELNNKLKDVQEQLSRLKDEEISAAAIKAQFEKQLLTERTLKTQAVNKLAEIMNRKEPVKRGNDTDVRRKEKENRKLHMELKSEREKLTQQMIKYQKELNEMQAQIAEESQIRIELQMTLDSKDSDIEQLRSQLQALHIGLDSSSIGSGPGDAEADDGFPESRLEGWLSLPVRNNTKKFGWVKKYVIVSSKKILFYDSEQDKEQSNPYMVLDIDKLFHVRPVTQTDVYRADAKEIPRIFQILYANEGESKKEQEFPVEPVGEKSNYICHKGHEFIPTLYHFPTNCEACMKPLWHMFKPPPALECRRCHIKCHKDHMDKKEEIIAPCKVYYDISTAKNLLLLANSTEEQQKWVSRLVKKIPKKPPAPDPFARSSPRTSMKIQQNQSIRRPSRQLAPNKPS

HUVEC = test: Antiproliferative activity against VEGF-stimulated HUVEC; assay type: functional, cell-based; settings: Homo sapiens
[6] = biological target: Rho-associated protein kinase 1 (Homo sapiens, UniProt Q13464); test: Binding affinity to wild-type partial length human ROCK1 (M1 to R415 residues) expressed in mammalian expression system by Kinomescan assay
Sequence of Rho-associated protein kinase 1 (Q13464 whole entry, the tested form may be a part): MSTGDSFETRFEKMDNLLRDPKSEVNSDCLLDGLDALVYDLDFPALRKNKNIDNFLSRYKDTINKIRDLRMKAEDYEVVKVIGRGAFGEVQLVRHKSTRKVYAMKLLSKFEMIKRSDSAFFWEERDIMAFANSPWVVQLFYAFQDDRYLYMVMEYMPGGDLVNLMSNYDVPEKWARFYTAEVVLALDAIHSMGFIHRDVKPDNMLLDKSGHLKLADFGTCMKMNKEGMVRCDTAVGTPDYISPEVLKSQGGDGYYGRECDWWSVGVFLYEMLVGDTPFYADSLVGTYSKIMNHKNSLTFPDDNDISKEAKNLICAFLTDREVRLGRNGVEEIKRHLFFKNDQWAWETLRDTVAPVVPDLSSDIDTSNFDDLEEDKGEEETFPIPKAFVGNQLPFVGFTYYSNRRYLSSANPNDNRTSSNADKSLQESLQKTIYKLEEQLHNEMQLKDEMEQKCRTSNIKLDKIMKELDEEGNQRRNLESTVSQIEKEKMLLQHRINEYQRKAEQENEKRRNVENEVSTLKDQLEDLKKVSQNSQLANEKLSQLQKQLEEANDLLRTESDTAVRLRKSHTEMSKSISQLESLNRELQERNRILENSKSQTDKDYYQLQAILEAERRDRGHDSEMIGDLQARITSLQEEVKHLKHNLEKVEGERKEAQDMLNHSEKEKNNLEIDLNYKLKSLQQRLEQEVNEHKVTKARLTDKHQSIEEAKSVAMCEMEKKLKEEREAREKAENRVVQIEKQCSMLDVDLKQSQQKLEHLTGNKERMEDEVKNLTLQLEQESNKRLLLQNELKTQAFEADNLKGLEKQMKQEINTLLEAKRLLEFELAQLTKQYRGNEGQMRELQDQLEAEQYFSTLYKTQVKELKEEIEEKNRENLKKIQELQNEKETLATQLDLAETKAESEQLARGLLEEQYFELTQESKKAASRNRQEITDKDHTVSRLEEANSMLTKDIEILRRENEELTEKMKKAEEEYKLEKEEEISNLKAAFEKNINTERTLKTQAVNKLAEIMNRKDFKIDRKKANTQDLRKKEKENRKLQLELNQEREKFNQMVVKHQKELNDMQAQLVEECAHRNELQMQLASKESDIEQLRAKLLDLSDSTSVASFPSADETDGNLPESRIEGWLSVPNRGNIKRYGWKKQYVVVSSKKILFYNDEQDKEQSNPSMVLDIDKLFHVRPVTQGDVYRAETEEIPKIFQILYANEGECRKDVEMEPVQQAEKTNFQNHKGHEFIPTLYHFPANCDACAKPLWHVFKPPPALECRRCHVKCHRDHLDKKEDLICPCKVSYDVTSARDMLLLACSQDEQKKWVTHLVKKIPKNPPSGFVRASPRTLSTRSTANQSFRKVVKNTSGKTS

[7] = biological target: cAMP-dependent protein kinase catalytic subunit alpha (Homo sapiens, UniProt P17612); test: Binding affinity to wild-type partial length human PKACalpha (G10 to F351 residues) expressed in bacterial expression system by Kinomescan assay
NHDF = test: Cytotoxicity against NHDF cells; assay type: cell-based; settings: Homo sapiens
[8] = Selectivity index, ratio of IC50 for NHDF cells to IC50 for VEGF-stimulated HUVEC; set-up: species or system Homo sapiens
[9] = biological target: Cyclin-C/Cyclin-dependent kinase 19 (Homo sapiens, UniProt Q9BWU1); test: Inhibition of recombinant human GST/His-tagged CDK11 (1 to 502 residues)/cyclinC (1 to 283 residues) catalytic domain expressed in insect cells by Lantha screen eu binding assay
Sequence of Cyclin-C/Cyclin-dependent kinase 19 (Q9BWU1 whole entry, the tested form may be a part): as the sequence (Q9BWU1 whole entry, the tested form may be a part) above
Sequence of Cyclin-C/Cyclin-dependent kinase 19 (P24863 whole entry, further chain, the tested form may be a part): as the sequence (P24863 whole entry, further chain, the tested form may be a part) above

With `Cc1ncccc1Oc1sc(C(N)=O)c2c1-c1c(cnn1C)CC2` the inhibition [1] was 99% and the inhibition [2] was 99%.
With `Cc1ccc(NC(=O)Nc2ccc(Cc3ccncc3)cc2)cc1C` the IC50 (CDK8/Cyclin C) was 0.018 µM, the GI50 (COLO 205) was 6.43 to 11.3 µM and the GI50 (HCT-116) was 6.43 to 11.3 µM. The GI50 (HT-29) was 6.43 to 11.3 µM.
For `N#Cc1ccc2ncnc(NCCc3ccccc3)c2c1`, the Kd [3] was 0.83 µM and the Kd [4] was 0.31 µM.
With `O=C(/C=C/c1cnccc1-c1ccc(F)cc1)Nc1ccc(CCc2nnco2)cc1` the inhibition [2] was 94%.
Compound `Cc1ccc(NC(=O)Nc2nnc(-c3cccc(F)c3)s2)cc1C` has an IC50 (CDK8/Cyclin C) of 0.047 µM, a GI50 (COLO 205) of 6.43 to 11.3 µM and a GI50 (HCT-116) of 6.43 to 11.3 µM. For the same compound, the GI50 (HT-29) was 6.43 to 11.3 µM.
Work on `Fc1ccc2nccc(Nc3ccccc3F)c2c1` yielded an IC50 (CDK8/Cyclin C) of 0.386 µM, a GI50 (COLO 205) of 6.43 to 11.3 µM and a GI50 (HCT-116) of 6.43 to 11.3 µM. For the same compound, the GI50 (HT-29) was 6.43 to 11.3 µM.
In the case of `CN(C)[C@H]1C[C@@]23CC[C@@]4(O2)C(=CC[C@]2(C)[C@@H](c5ccc6ccncc6c5)CC[C@H]24)C=C3[C@@H](O)[C@@H]1O`, the Kd [5] is reported as 0.22 µM, the IC50 (HUVEC) is reported as 0.0018 µM and the Kd [6] is reported as 0.25 µM. For the same compound, the Kd [3] was 0.017 µM, the Kd [4] was 0.01 µM and the Kd [7] was 3.5 µM. The IC50 (NHDF) was 6 µM and the “Ratio IC50” value [8] was 3300.
In the case of `CC1CCc2nc(N)c(C#N)c(-c3cccnc3)c2C1` (stereo unspecified), the IC50 [9] is reported as greater than 30 µM.
